Experimental data as given in patent US12411143B2, “CD146 and uses thereof as a biomarker and as a therapeutic target in the diagnosis and treatment of fibrosis” (ASSISTANCE PUBLIQUE HÔPITAUX DE MARSEILLE, priority 2018, dated 2025).
Entries after “also recorded” stand apart in the source; their conditions may differ.

Assays:
Type in all cases: cell-based
[1] = test system: Human cardiac fibroblasts (HCFs); test: Myofibroblast marker expression in human cardiac fibroblasts (RT-PCR, western blot, immunofluorescence)
Procedure: (§1) Human cardiac fibroblasts (HCFs) (PromoCell) are grown in Fibroblast Growth Medium 3 Supplement Pack (PromoCell) in an environment at 37° C. with controlled atmosphere. The HCFs are grown between passages 3 and 7.
(§2) To perform the stimulations, the fibroblasts are seeded at a density of 30 000 cells/cm^2 in complete culture medium. After 24 hours of adhesion, the cell culture medium is replaced with medium not containing growth factor (minimal medium) for 4 hours.
Total mRNA is extracted using a purification kit (RNeasy Mini, Qiagen) then eluted in 30 μL of RNase-free water. The amount of RNA is measured at 260 nm using a spectrophotometer (NanoDrop). The RNA is then converted to cDNA using 200 ng of RNA and according to the same protocol as the tissue RNA. The gene expression study is performed by real-time PCR from 10 ng of cDNA (Table 4).
The cells are lysed at 4° C. in a buffer composed of 10 mMTris-HCl (pH 8), 1 mM EDTA, 150 mMNaCl, 10% NP40, containing a protease inhibitor cocktail (Pierce, Thermo Scientific). The cell lysate obtained is centrifuged at 4° C. and 15000 g for 10 minutes. The supernatant containing solubilized proteins is collected and the amount of proteins determined using a calibration curve of bovine serum albumin (BSA) prepared from a 1 mg/mL BSA solution diluted in the lysis buffer used during sample preparation.
The samples are then used in western blot experiments. To that end, an aliquot containing 30 μg of proteins is taken up in 4× Laemmli buffer containing a reducing agent (Invitrogen) and then heated for 10 minutes at 75° C. before being deposited on an electrophoresis gel (NuPAGE 4-12% Bis-Tris Gel, Invitrogen). After migration of the samples, the proteins are dry-transferred to a nitrocellulose membrane (iBlot 2, Invitrogen). The membrane is blocked for 45 minutes with a Tris buffer containing 0.1% Tween 20 (TBS-T) and 4% BSA. The primary antibody (Table 5) diluted in TBS-T is hybridized for 12 hours at 4° C. and then rinsed for 3×10 minutes with TBS-T. The HRP-coupled secondary antibody (TBS-T) is hybridized for 1 hour. After rinsing, HRP activity is detected using a chemiluminescent substrate (ECL, Pierce). An antibody directed against a normalizing protein (β-tubulin), the expression of which is not modified by the experimental conditions, makes it possible to normalize the quantification and then to express the results semi-quantitatively (% control). Emitted light is captured with a camera (G:BOX). The proteins of interest are visualized as black bands on a white background. The signal thus obtained is quantified by densitometry (Image Lab Software version 4.1) (Table 5).
The cells are fixed for 5 minutes in 70° ethanol at 4° C. and then rinsed with PBS. After 1 hour of blocking in a PBS solution containing 5% BSA, the primary antibody (anti-α-SMA, Dako-0851) diluted 1/50 and then the secondary antibody (anti-mouse antibody) coupled to a fluorescent molecule (Alexa Fluor 488) are incubated for 1.5 hours. Rinses with PBS are performed between each step. The cells are mounted in an aqueous medium containing a nuclear stain (ProLongMountant with DAPI, Invitrogen) before being observed under a fluorescence microscope.
Modulation of α-SMA expression was examined in response to stimulation of HCFs by 50 ng/mL of CD146 for 48 hours.

miR21 = test: In vitro induction of miR21
[2] = test system: Human cardiac fibroblasts (HCFs); test: Cell proliferation of human cardiac fibroblasts (BrdU assay)
Procedure: as §1, §2
This medium is then replaced with minimal medium supplemented with 25, 50, 75 or 100 ng/mL of CD146s or with 2.5, 5 or 10 ng/mL of TGF-β for the proliferation study.
Cell proliferation is determined using a proliferation kit (BrdU Assay, Roche). An anti-BrdU antibody diluted 1/100 in its diluent solution is incubated for 90 minutes at 37° C. After removal and rinsing of excess antibody, a second antibody directed specifically against anti-BrdU and coupled to peroxidase is incubated for 30 minutes at room temperature and then removed. Detection is performed by the addition of 100 μL of enzyme substrate. […] Staining intensity, proportional to BrdU incorporation, is read on a spectrophotometer at 450 nm. The results are calculated by subtracting the background noise observed in a culture well containing no cells but having received the same amount of BrdU. Percentage of proliferation is then calculated for each condition. […]

[3] = test system: renal and cardiac endothelial cells; test: In vitro endothelial-mesenchymal transition

Q: How did the “α-SMA network (indirect immunofluorescence)” value ([1]; 50 ng/mL) turn out when “sCD146: recombinant human soluble form of CD146 corresponding to the shed sCD146, obtained from Biocytex” was run?
A: establishment of a smooth muscle actin network

Q: And the CD146 expression ([1]; 50 ng/mL of CD146s, first results n=2)?
A: 2 fold

Q: And the “α-SMA protein expression level (western blot)” value ([1]; 50 ng/mL, 48 hours)?
A: 2.5 fold

Q: And the “α-SMA RNA expression level (overexpression)” value ([1]; 50 ng/mL, 48 hours, n=4)?
A: 2.5 fold

Q: And the “TGF-β expression at the RNA level” value ([1]; HCFs stimulated by CD146s, preliminary)?
A: increase in TGF-β expression; also recorded: able to increase TGF-β expression

Q: What about the “expression of RNAs encoding fibronectin and type I collagen” value ([1]; semiquantitative RT-PCR, comparable to TGF-β stimulation) of the same substance?
A: increase in synthesis of fibronectin and of type I collagen

Q: And the miR21 induction (miR21)?
A: significantly induces in vitro miR21

Q: What about the “cell proliferation of cardiac fibroblasts” value ([2]; 25, 50, 75 or 100 ng/mL of CD146s) of the same substance?
A: significant, dose-dependent increase in cell proliferation

Q: And the “amount giving the maximum pro-proliferative effect” value ([2]; HCFs)?
A: 50 ng/mL

Q: And the endothelial-mesenchymal transition [3]?
A: induces in vitro an endothelial-mesenchymal transition
